According to patent publication US20190008848A1, “IDENTIFICATION OF ADDITIONAL ANTI-PERSISTER ACTIVITY AGAINST BORRELIA BURGDORFERI FROM AN FDA DRUG LIBRARY” (THE JOHNS HOPKINS UNIVERSITY, priority 2015, published 2019):
Structures can show the parent of a compound that is named as a salt. Where two headings read alike, the source gives them in different places.

System: stationary phase B. burgdorferi
Assay: SYBR Green I/PI viability assay (drug library screen, plate reader)
Settings: for viability at 50 µM: Borreliella burgdorferi, 168 h; for activity against stationary phase B. burgdorferi (in words): screen at 50 μM
Experimental: Borrelia burgdorferi strain B31 (ATCC35210) was received from the […] (Manassas, Va., USA) and was grown in BSK-H medium (HiMedia Laboratories, Mumbai, India) and 6% rabbit serum (Sigma Aldrich, St. Louis, Mo., USA). The culture was filtered and sterilized using a […] and incubated in capped sterile 50 mL conical tubes (BD Biosciences, CA, USA) at 33° C. for 7 days without antibiotics until the culture reached stationary phase.
The cultures were examined using a Nikon Eclipse E800 microscope with differential interference contrast and epifluorescent illumination. The pictures were captured using a SPOT slider color camera. A SYBR Green I/PI assay was used to assess the viability of the bacterial sample using the ratio of live to dead B. burgdorferi (measured with green and red fluorescence, respectively) as measured by a plate reader.
Briefly, prediluted drug stock (10 μL) was added to 7 day old stationary phase B. burgdorferi culture (90 μL) to achieve a 50 μM final drug concentration per well. The plates were then incubated at 33° C. for 7 days at which point the SYBR/PI rapid viability assay was performed in a fluorescence plate reader to obtain the green-red fluorescence ratio.

[1] = read-out: Residual viable cells (SYBR Green/PI), Table 1, drugs 50 μM, 7 day old stationary phase cells treated for 7 days
[2] = read-out: Residual viable cells (SYBR/PI), Table 3, drugs 50 μM, 7-day old stationary phase cells treated for 7 days
[3] = Table 3, drugs 50 μM, 7-day old stationary phase cells treated for 7 days
[4] = read-out: Residual viable cells (SYBR/PI)

SMILES | viability at 50 µM [2] [%] | also measured
N#CCC(=O)NN [Cyacetacide] | 61 | viability at 50 µM [1]: 61%
N#CC(c1ccc(Cl)cc1)c1c(Cl)cc(-n2ncc(=O)[nH]c2=O)cc1Cl (centres unmarked) [Diclazuril] | 63 | –
Cc1cn([C@H]2C=C[C@@H](CO)O2)c(=O)[nH]c1=O [2′,3′-Didehydro-3′-Deoxythymidine] | 65 | –
CCCOc1ccc2nc(NC(=O)OC)[nH]c2c1 [Oxibendazole] | 51 | viability at 50 µM [1]: 51%
Clc1ccccc1C(c1ccccc1)(c1ccccc1)n1ccnc1 [Clotrimazole] | 68 | –
NC12CC3CC(CC(C3)C1)C2 [Amantadine hydrochloride] | 65 | Residual viable cells (SYBR/PI) (Borrelia burgdorferi, 7 days, 50 μM): 69%
CC(C)(C)CC(C)(C)c1ccc(O)c(Cc2ccc(Cl)cc2Cl)c1 [Clofoctol] | 73 | –
Oc1ccc(Cl)c2cccnc12 [Cloxyquin (5-chloro-8-hydroxy-quinoline), 5-chloro-8-hydroxy-quinoline] | 60 | –
CS(=O)(=O)c1ccc([C@@H](O)[C@@H](CO)NC(=O)C(Cl)Cl)cc1 [Thiamphenicol] | 57 | –
[I-].[K+] [Potassium iodide] | – | Residual viable cells (SYBR/PI) [3]: 65%
NC[C@@H]1CC[C@@H](N)[C@@H](O[C@H]2[C@H](O)[C@@H](O[C@H]3O[C@H](CO)[C@@H](O)[C@H](N)[C@H]3O)[C@H](N)C[C@@H]2N)O1 [Dibekacin] | 70 | –
CCN(CC)CCOc1ccc2c(c1)C(=O)c1cc(OCCN(CC)CC)ccc1-2 [Tilorone, Tilorone dihydrochloride] | 44 | viability at 50 µM [1]: 44%; activity against stationary phase B. burgdorferi (in words) (7 days): good activity
CS(=O)(=O)c1ccc([C@@H](O)[C@@H](CF)NC(=O)C(Cl)Cl)cc1 [Florfenicol] | 53 | –
O=C(O)CCNC(=O)c1ccccc1 [Betamipron (n-benzoyl-b-alanine), n-benzoyl-b-alanine] | 68 | –
O=C(Nc1ccc(Cl)cc1)Nc1ccc(Cl)c(Cl)c1 [3,4,4′-Trichlorocarbanilide] | – | Residual viable cells (SYBR/PI) [3]: 45%
COC(=O)Nc1nc2ccc([S+]([O-])c3ccccc3)cc2[nH]1 (centres unmarked) [Oxfendazole] | 54 | viability at 50 µM [1]: 54%
COC(=O)Nc1nc2cc(C(=O)c3ccc(F)cc3)ccc2[nH]1 [Flubendazole] | 54 | viability at 50 µM [1]: 54%
Nc1ccc(C(=O)O)c(O)c1 [4-Aminosalicylic acid] | – | viability at 50 µM [4]: 66%
O=C1Nc2ccc(Cl)cc2[C@@](C#CC2CC2)(C(F)(F)F)O1 [Efavirenz] | 60 | –
Cc1ccnc2c1NC(=O)c1cccnc1N2C1CC1 [Nevirapine] | 51 | viability at 50 µM [1]: 51%; activity against stationary phase B. burgdorferi (in words) (7 days): good activity
O=c1[nH]c(=O)n([C@H]2C[C@H](O)[C@@H](CO)O2)cc1F [Floxuridine, 5-fluorodeoxyuridine] | 61 | viability at 50 µM [1]: 61%

SMILES | viability at 50 µM [2] [%] | also measured
CCCCCl [Butyl chloride (1-Chlorobutane), 1-Chlorobutane] | – | viability at 50 µM [4]: 41%; activity against stationary phase B. burgdorferi (in words) (7 days): very high activities
Nc1nc(O)c2ncn(COC(CO)CO)c2n1 [Ganciclovir] | 53 | viability at 50 µM [1]: 53%
Nc1ccc([As](=O)(O)O)cc1 [p-Arsanilic acid] | – | Residual viable cells (SYBR/PI) [3]: 49%
NC1CCN(c2c(F)cc3c(=O)c(C(=O)O)cn(C4CC4)c3c2Cl)C1 (centres unmarked) [Clinafloxacin] | 60 | –
C[C@@H](c1ncncc1F)[C@](O)(Cn1cncn1)c1ccc(F)cc1F [Voriconazole] | 65 | –
NS(=O)(=O)c1ccc(C(=O)O)cc1 [Carzenide (4-Carboxybenzenesulfonamide), 4-Carboxybenzenesulfonamide] | 59 | –
CN1CCN(c2c(F)cc3c(=O)c(C(=O)O)cn(CCF)c3c2F)CC1 [Fleroxacin] | 73 | –
CCC[S+]([O-])c1ccc2[nH]c(NC(=O)OC)nc2c1 (centres unmarked) [Ricobendazole (Albendazole oxide), Albendazole oxide] | – | viability at 50 µM [4]: 57%
CCCCCCCCCCCCCCCCCCCCCCO [Docosanol] | 55 | –
Nc1ccn([C@@H]2CS[C@H](CO)O2)c(=O)n1 [Lamivudine] | 58 | viability at 50 µM [1]: 58%
O=C(Cn1ccnc1[N+](=O)[O-])NCc1ccccc1 [Benznidazole] | 53 | –
CCN(CC)CCNc1ccc(CO)c2sc3ccccc3c(=O)c12 [Hycanthone] | 45 | viability at 50 µM [1]: 45%
CC(C)Cn1cnc2c(N)nc3ccccc3c21 [Imiquimod] | – | viability at 50 µM [4]: 64%
Cc1cc(C2CCCCC2)n(O)c(=O)c1 [Ciclopirox olamine] | 66 | –
NC1CCN(c2nc3c(cc2F)c(=O)c(C(=O)O)cn3-c2ccc(F)cc2F)C1 (centres unmarked) [Tosufloxacin] | 57 | viability at 50 µM [1]: 57%
COP(=O)(OC)C(O)C(Cl)(Cl)Cl (centres unmarked) [Metrifonate] | – | viability at 50 µM [4]: 51%
CC(=O)OCC1=C(C(=O)O)N2C(=O)[C@@H](NC(=O)CCC[C@@H](N)C(=O)O)[C@H]2SC1 [Cephalosporin C] | – | Residual viable cells (SYBR/PI) [3]: 58%
CO[C@H]1/C=C/O[C@@]2(C)Oc3c(C)c(O)c4c(O)c(c5c(nc6cc(C)ccn65)c4c3C2=O)NC(=O)/C(C)=C\C=C\[C@H](C)[C@H](O)[C@@H](C)[C@@H](O)[C@@H](C)[C@H](OC(C)=O)[C@@H]1C [Rifaximin] | 51 | –
c1ccc(C2CN3CCSC3=N2)cc1 (centres unmarked) [Tetramisole] | 48 | viability at 50 µM [1]: 48%
Clc1ccc(CCC(Cn2ccnc2)Sc2c(Cl)cccc2Cl)cc1 (centres unmarked) [Butoconazole nitrate] | 74 | –
S=C=Nc1ccc(N=C=S)cc1 [Bitoscanate] | – | viability at 50 µM (read-out: Residual viable cells (SYBR Green/PI)): 46%; viability at 50 µM [4]: 46%

SMILES | viability at 50 µM [2] [%] | also measured
C[C@H]1[C@H](OC(=O)CCC(=O)O)O[C@@H]2O[C@@]3(C)CC[C@H]4[C@H](C)CC[C@@H]1[C@@]24OO3 [Artesunate] | 58 | –
O=C(Nc1ccccc1)c1ccccc1O [Salicylanilide] | – | viability at 50 µM [4]: 63%
C=N[C@@H](C(=O)N[C@@H]1C(=O)N2[C@@H]1SC(C)(C)[C@@H]2C(=O)O)c1ccccc1 [Metampicillin] | 57 | –
COC1=CC(=O)C[C@@H](C)[C@]12Oc1c(Cl)c(OC)cc(OC)c1C2=O [Griseofulvin] | 63 | viability at 50 µM [1]: 63%
CCC(=O)O[C@@H]1CC(=O)O[C@H](C)C/C=C/C=C/[C@H](O)[C@H](C)C[C@H](CC=O)[C@H](O[C@@H]2O[C@H](C)[C@@H](O[C@H]3C[C@@](C)(O)[C@@H](OC(=O)CC)[C@H](C)O3)[C@H](N(C)C)[C@H]2O)[C@H]1OC [Midecamycin] | 54 | –
CC(=O)Nc1ccc(/C=N/NC(N)=S)cc1 [Thiacetazone (Amithiozone), Amithiozone] | 73 | –
Cc1c(O)cccc1C(=O)N[C@@H](CSc1ccccc1)[C@H](O)CN1C[C@H]2CCCC[C@H]2C[C@H]1C(=O)NC(C)(C)C [Nelfinavir mesylate] | 66 | –
C[C@H]1COc2c(C3(N)CC3)c(F)cc3c(=O)c(C(=O)O)cn1c23 [Pazufloxacin] | 69 | –
O=C(N/N=C/c1ccc([N+](=O)[O-])o1)c1cc([N+](=O)[O-])cc([N+](=O)[O-])c1O [Nifursol] | 51 | –
CCCc1cc(C(N)=S)ccn1 [Protionamide] | 63 | –
O=c1n(Cl)c(=O)n(Cl)c(=O)n1Cl [Symclosene (Trichloroisocyanuric acid), Trichloroisocyanuric acid] | – | viability at 50 µM [4]: 60%
CC(=O)OCC(CCn1cnc2cnc(N)nc21)COC(C)=O [Famciclovir] | 68 | –
CC(C)[C@H](N)C(=O)OCCOCn1cnc2c(=O)[nH]c(N)nc21 [Valacyclovir] | 58 | –
Clc1ccc(CO/N=C(\Cn2ccnc2)c2ccc(Cl)cc2Cl)c(Cl)c1 [Oxiconazole nitrate] | 62 | viability at 50 µM [1]: 62%
CCOc1ccc2nc3cc(N)ccc3c(N)c2c1 [Ethacridine lactate] | 48 | viability at 50 µM [1]: 48%
CC(N)C12CC3CC(CC(C3)C1)C2 (centres unmarked) [Rimantadine] | 68 | –
O=c1[nH]cnc2c1ncn2[C@H]1CC[C@@H](CO)O1 [Didanosine, 2′-3′-dideoxyinosine] | 61 | viability at 50 µM [1]: 61%
Cc1nc(C)c(Cl)c(O)c1Cl [Clopidol] | 57 | –
COC(=O)N/N=C/c1c[n+]([O-])c2ccccc2[n+]1[O-] [Carbadox] | 69 | –
C[C@@H]1[C@H](O)[C@@H](C)/C=C/C=C/CC/C=C/C=C/C=C/C=C/C(O[C@H]2O[C@H](C)[C@@H](O)[C@H](N)[C@@H]2O)CC2O[C@](O)(CC(O)C(O)CCC(O)CC(O)CC(O)CC(=O)O[C@H]1C)CC(O)C2C(=O)O (some centres unmarked) [Nystatin] | – | Residual viable cells (SYBR Green/PI) (Table 1, drugs 50 μM, 7 day old stationary phase cells treated for 7 days): 64%; Residual viable cells (SYBR/PI) [3]: 64%; activity against stationary phase B. burgdorferi (in words) (7 days): reasonable activity
COC(=O)c1ccc(O)c2nc3c(C=O)c(O)cc(O)c3nc12 [Lomofungin] | 58 | –
